Like-named read-outs stand apart in the source and are kept apart here.
Columns and labels:
[1] = system: lymphocytic leukemia P388; assay: Lymphocytic leukemia P388 test; format: in vivo, BDF1 mice
melanotic melanoma B16 = assay: Melanotic Melanoma B16 test; format: in vivo, BDF1 mice
L1210 leukemia cells = assay: Lymphocytic Leukemia L1210 test; format: in vivo, BDF1 mice
solubility = details: 0.1 M phosphate buffer, pH 7.5
[2] = pH 7.5
[3] = Dose 12.5 mg/kg intraperitoneally on days 1, 5 and 9
[4] = Dose 25 mg/kg intraperitoneally on days 1, 5 and 9
[5] = Dose 50 mg/kg intraperitoneally on days 1, 5 and 9
[6] = Dose 100 mg/kg intraperitoneally on days 1, 5 and 9
[7] = Dose 200 mg/kg intraperitoneally on days 1, 5 and 9
[8] = Dose 0.78 mg/kg intraperitoneally on days 1, 5 and 9
[9] = Dose 1.56 mg/kg intraperitoneally on days 1, 5 and 9
[10] = Dose 3.12 mg/kg intraperitoneally on days 1, 5 and 9
[11] = Dose 6.25 mg/kg intraperitoneally on days 1, 5 and 9
[12] = Dose 0.19 mg/kg intraperitoneally on days 1, 5 and 9
[13] = Dose 0.39 mg/kg intraperitoneally on days 1, 5 and 9
[14] = Dose 3.25 mg/kg intraperitoneally on days 1, 5 and 9

SMILES: CCCC(=O)N1CCN=C1NN=Cc1c2ccccc2c(C=NNC2=NCCN2C(=O)CCC)c2ccccc12 [2,2-(9,10-Anthracenediylbis(methylidyne-1-hydrazinyl-2-ylidene)]bis4,5-dihydro-1-(1-oxobutyl)-1H-imidazole]]
- Median Survival [1, 3]: 12.5 days
- T/C x 100 % [1, 3]: 125%
- Median Survival [1, 4]: 12.5 days
- T/C x 100 % [1, 4]: 125%
- Median Survival [1, 5]: 14 days
- T/C x 100 % [1, 5]: 140%
- Median Survival [1, 6]: 14.5 days
- T/C x 100 % [1, 6]: 145%
- Median Survival [1, 7]: 15.5 days
- T/C x 100 % [1, 7]: 155%
- Median Survival (melanotic melanoma B16; [4]): 26 days
- T/C x 100 % (melanotic melanoma B16; [4]): 118%
- Median Survival (melanotic melanoma B16; [5]): 24.5 days
- T/C x 100 % (melanotic melanoma B16; [5]): 111%
- Median Survival (melanotic melanoma B16; [6]): 28.5 days
- T/C x 100 % (melanotic melanoma B16; [6]): 130%
- Median Survival (melanotic melanoma B16; [7]): 27.5 days
- T/C x 100 % (melanotic melanoma B16; [7]): 125%

SMILES: O=C(c1ccccc1)N1CCN=C1N(N=Cc1c2ccccc2c(C=NN(C(=O)c2ccccc2)C2=NCCN2C(=O)c2ccccc2)c2ccccc12)C(=O)c1ccccc1 [2,2-(9,14-Anthracenediyldimethylidyne)bis[1-(1-benzoyl-4,5-dihydro-1H-imidazol-2-yl)hydrazide] of Benzoic Acid]
- Median Survival [1, 8]: 15.5 days
- T/C x 100 % [1, 8]: 155%
- Median Survival [1, 9]: 17.5 days
- T/C x 100 % [1, 9]: 175%
- Median Survival [1, 10]: 17 days
- T/C x 100 % [1, 10]: 170%
- Median Survival [1, 11]: 18 days
- T/C x 100 % [1, 11]: 180%
- Median Survival [1, 3]: 19 days
- T/C x 100 % [1, 3]: 190%
- Median Survival [1, 4]: 19.5 days
- T/C x 100 % [1, 4]: 195%
- Median Survival [1, 5]: 20 days
- T/C x 100 % [1, 5]: 200%
- Median Survival [1, 6]: 23 days
- T/C x 100 % [1, 6]: 320%
- Median Survival [1, 7]: 32 days
- T/C x 100 % [1, 7]: 320%
- Median Survival (melanotic melanoma B16; [3]): 29.5 days
- T/C x 100 % (melanotic melanoma B16; [3]): 134%
- Median Survival (melanotic melanoma B16; [4]): 32 days
- T/C x 100 % (melanotic melanoma B16; [4]): 145%
- Median Survival (melanotic melanoma B16; [5]): 40 days
- T/C x 100 % (melanotic melanoma B16; [5]): 182%
- Median Survival (melanotic melanoma B16; [6]): 57.5 days
- T/C x 100 % (melanotic melanoma B16; [6]): 261%
- Median Survival (melanotic melanoma B16; [7]): 50 days
- T/C x 100 % (melanotic melanoma B16; [7]): 227%

SMILES: O=C(O)CCC(=O)N1CCN=C1NN=Cc1c2ccccc2c(C=NNC2=NCCN2C(=O)CCC(=O)O)c2ccccc12 [2,2[9,10-Anthracenediylbis(methylidene-1-hydrazinyl-2-ylidene)]bis[4,5-dihydro-gamma-oxo-1H-imidazole-1-butanoic Acid]]
- Median Survival [1, 12]: 15 days
- T/C x 100 % [1, 12]: 150%
- Median Survival [1, 13]: 15.5 days
- T/C x 100 % [1, 13]: 155%
- Median Survival [1, 8]: 17 days
- T/C x 100 % [1, 8]: 170%
- Median Survival [1, 9]: 17 days
- T/C x 100 % [1, 9]: 170%
- Median Survival [1, 10]: 19 days
- T/C x 100 % [1, 10]: 190%
- Median Survival [1, 11]: 19 days
- T/C x 100 % [1, 11]: 190%
- Median Survival [1, 3]: 23 days
- T/C x 100 % [1, 3]: 230%
- Median Survival (melanotic melanoma B16; [14]): >60 days
- T/C x 100 % (melanotic melanoma B16; [14]): >273%
- Median Survival (melanotic melanoma B16; [11]): >60 days
- T/C x 100 % (melanotic melanoma B16; [11]): >273%
- Median Survival (melanotic melanoma B16; [3]): 55.5 days
- T/C x 100 % (melanotic melanoma B16; [3]): 252%
- Median Survival (L1210 leukemia cells; [13]): 11.5 days
- T/C x 100 % (L1210 leukemia cells; [13]): 135%
- Median Survival (L1210 leukemia cells; [8]): 11.2 days
- T/C x 100 % (L1210 leukemia cells; [8]): 132%
- Median Survival (L1210 leukemia cells; [9]): 12 days
- T/C x 100 % (L1210 leukemia cells; [9]): 141%
- Median Survival (L1210 leukemia cells; [10]): 12.3 days
- T/C x 100 % (L1210 leukemia cells; [10]): 145%
- Median Survival (L1210 leukemia cells; [11]): 12.2 days
- T/C x 100 % (L1210 leukemia cells; [11]): 144%
- Median Survival (L1210 leukemia cells; [3]): 13.2 days
- T/C x 100 % (L1210 leukemia cells; [3]): 155%

SMILES: CC(=O)N1CCN=C1N(N=Cc1c2ccccc2c(C=NN(C(C)=O)C2=NCCN2)c2ccccc12)C(C)=O [2-[[10-[[Acetyl(1-acetyl-4,5-dihydro-1H-imidazol-2-yl)hydrazono]methyl]-9-anthracenyl]methylene]-1-(4,5-dihydro-1H-imidazol-2-yl)hydrazide of Acetic Acid]
- Median Survival [1, 11]: 12.5 days
- T/C x 100 % [1, 11]: 125%
- Median Survival [1, 3]: 13 days
- T/C x 100 % [1, 3]: 130%
- Median Survival [1, 4]: 15.5 days
- T/C x 100 % [1, 4]: 155%
- Median Survival [1, 5]: 16.5 days
- T/C x 100 % [1, 5]: 165%
- Median Survival [1, 6]: 17 days
- T/C x 100 % [1, 6]: 170%
- Median Survival [1, 7]: 17.5 days
- T/C x 100 % [1, 7]: 175%
- Median Survival (melanotic melanoma B16; [3]): 28 days
- T/C x 100 % (melanotic melanoma B16; [3]): 127%
- Median Survival (melanotic melanoma B16; [4]): 30 days
- T/C x 100 % (melanotic melanoma B16; [4]): 136%
- Median Survival (melanotic melanoma B16; [5]): 29.5 days
- T/C x 100 % (melanotic melanoma B16; [5]): 134%
- Median Survival (melanotic melanoma B16; [6]): 37 days
- T/C x 100 % (melanotic melanoma B16; [6]): 168%
- Median Survival (melanotic melanoma B16; [7]): 40 days
- T/C x 100 % (melanotic melanoma B16; [7]): 182%

SMILES: O=C(O)c1cn(C2CC2)c2cc(N3CCN(P(=O)(O)O)CC3)c(F)cc2c1=O [Example 47, t-Cyclopropyl-6-fluoro-1,4-dihydro-4-oxo-7-(4-phosphono-1-piperazinyl)-3-quinolinecarboxylic Acid]
- solubility (solubility): soluble

SMILES: CCOP(=O)(OCC)N1CCN(c2cc3c(cc2F)c(=O)c(C(=O)OCCOC)cn3C2CC2)CC1 [Example 49, 1-Cycfopropyl-7-[4-(diethoxyphosphinyl)-1-piperazinyl]-6-fluoro-1,4-dihydro-4-oxo-3-quinolinecarboxylic Acid, 2-Methoxyethyl Ester]
- solubility [2]: easily soluble

From patent EP0338372A2, “Solubilized pro-drugs” (AMERICAN CYANAMID COMPANY, priority 1988, dated 1989)
